For the test, the system named is HeLa (human cervical carcinoma), F98 (rat glioblastoma), IMR90 (human embryonic lung) cell lines. Description: Transfection of adherent cell lines with pUT 651 plasmid (lacZ / β-galactosidase reporter). Type of test: cell-based. Particulars: all investigated cell lines, versus Lipofectin, LipofectAMINE, DOTAP and DAC-30. Here is the method: The gene transfer properties of the lipids according to the invention (lipid 9 (Sulfectin A) and lipid 10 (Sulfectin B)) were tested on various cell lines and were compared with the reagents known heretofore (FIGS. 3, 4 and 5). A plasmid coded for β-galactosidase was used as the reporter system. In the trials, the lipids were also mixed with, among other things, the neutral auxiliary lipid 1,2-dioleoyl-sn-glycero-3-phosphoethanolamine (DOPE). […] Among others a β-galactosidase expression up to 10 times higher was found. This is the more surprising in that in most cases (IMR90 and F98 cells) no admixture of an a helper lipid was necessary. With all the commercial lipids, on the other hand, a portion of DOPE was indispensable for an efficient gene transfer. The high gene transfer efficiency of the pure lipid is also advantageous for the production of the gene transfer reagent, since the formulation step of the cationic lipid and auxiliary lipid is omitted. […]
After a transfection time of 24 h, the medium is changed and the cells are incubated for a further 48 h. […] The lysate is treated with chlorophenol red β-galactopyranoside (Roche Diagnostics, 1 mg/ml in HBSS) as a substrate for β-galactosidase, and the optical density at different intervals is determined with a microplate reader (Dynex) (measurement wavelength 540 nm, reference wavelength 630 nm).

Consider two compounds from patent publication US20050048108A1, “Sulphur-containing amphiphilic agents for the transfer of biologically active molecules into cells” (G.O.T. Therapeutics GMBH, priority 2000, published 2005).

Take `CCCCCCCC/C=C\CCCCCCCC(=O)OCC(CC[S+]([O-])CCCN)OC(=O)CCCCCCC/C=C\CCCCCCCC.O=C(O)C(F)(F)F` (centres unmarked) [lipid 10, 3-[(3,4-dioleoyloxybutyl)-sulfinyl]propyl-1-ammonium trifluoroacetate]: the “gene transfer (transfection) efficiency compared with the known lipids” value is “markedly higher efficiency”.
On to `CCCCCCCC/C=C\CCCCCCCC(=O)OCC(CCS(=O)(=O)CCCN)OC(=O)CCCCCCC/C=C\CCCCCCCC.O=C(O)C(F)(F)F` (centres unmarked) [lipid 9, 3-[(3,4-dioleoyloxybutyl)-sulfonyl]propyl-1-ammonium trifluoroacetate], for which the “gene transfer (transfection) efficiency compared with the known lipids” value is “markedly higher efficiency”.
